In patent US20040138272A1, “1,4-Substituted cyclohexane derivatives” (priority 2002, published 2004):
Entries after “also recorded” stand apart in the source; their conditions may differ.

Legend:
[1] = test system: NG108-15 neuronal cell line; experiment: Rapid bioassay of neurite growth in NG108-15 cells; type: cell-based
Description: When neurons are placed on inhibitory substrates in tissue culture, the neurons remain rounded. When an effective Rho kinase inhibitor is added to the neurons, the neurons are able to grow neurites on myelin substrates. The time that it takes for neurons to grow neurites after the addition of a Rho kinase inhibitor is about the same as the time that it takes for neurons to grow neurites if the neurons had been plated on growth permissive substrate such as laminin or polylysine, which time is typically 1 to 2 days in cell culture. An assessment of resulting neurite growth can be scored by visual means. If needed, a quantitative assessment of neurite growth can be performed. This involves measuring after a time such as 1 to 2 days the neurite length a) in control cultures where neurons are plated on myelin substrates and left untreated with Rho kinase inhibitor for such time, b) in positive control cultures, wherein for example neurons are plated on polylysine but left untreated with Rho kinase inhibitor for such time, and c) in cultures analogous to a) and b) that are treated with different concentrations of a Rho kinase inhibitor for such time. […] In this assay, NG108 cells are plated on plastic in the presence or absence of the test substance (a Rho kinase inhibitor). […] The relative efficacy can be assessed by fixing the cultures 5 hours after plating, and counting the number of cells that have grown neurites.
A rapid bioassay is used to determine the effect of a test compounds on the stimulation of neurite growth in vitro. A neuronal cell line, NG108-15 (ATCC HB-12317), is maintained in culture in Dulbecco's minimal essential medium (DMEM) supplemented with 10% fetal bovine serum, Penicillin/Streptomycin and HAT supplement (Gibco/BRL). For the bioassay, the cells are collected by trypsinisation and ressuspended in DMEM supplemented with 5% FBS, Penicillin/Streptomycin, HAT supplement and 0.25 mg/ml cAMP, adjusted to 1.0×10^4 cells/ml. The cells are plated into wells of a 96 well plate at 100 μls (1000 cells)/well. Cells are incubated 4 h at 37° C. and 5% CO2 in presence of small molecules or cethrin at a concentration of 1000 cells per well of a 96-wells plate in a final volume of 100 ul.
After incubation, cells are fixed by adding […] 16% PFA and 5.4 μls 2.5% glutaraldehyde to the media in each well. The wells are stained with cresyl violet 0.05% , 100 μls/well for 15 min. Cells with neurites (length≧one cell body) are counted using an inverted light microscope. The % neurite outgrowth is determined by calculating the number of cells with neurites over the total number of counted cells.

[2] = test system: PC12 cells on MAG substrates; experiment: Bioassay of PC12 neurite growth on growth inhibitory myelin-associated glycoprotein (MAG) substrates; type: cell-based
Description: PC-12 cells (ATCC CRL-1721) typically extend neurites in response to NGF, but when plated on inhibitory substrates, this outgrowth is inhibited and the cells remain round. We tested the ability of the new compound to grow neurites when plated on inhibitory substrates.
We used PC12 cells obtained from the American Type Culture Collection. PC12 cells were grown in Dulbecco's modified eagle's medium (DMEM) with 10% horse serum and 5% fetal bovine serum. To test compounds for the ability to overcome growth inhibition, PC12 cells were collected by detaching with trypsin-EDTA (0.05%), then resuspended in DMEM, 1% FBS, and 50 ng/ml nerve growth factor before plating on MAG substrates. MAG used for substrates was purified from myelin after extraction in 1% octylglucoside and separation by ion exchange chromatography (McKerracher et al. 1994, Neuron 13:805-811). Test substrates were prepared as uniform substrates in 96-well plates by drying overnight in the laminar flow hood (Nalge Nunc, Naperville, Ill.). Plates were precoated with polylysine (100 μg/ml) for 3 hours at 37° C., then washed and dried approx. 1 hour. MAG was prepared as a substrate by drying down 8 μg of protein overnight. After plating on the MAG substrate, the cells were grown at 37 C. for two days in the presence or absence of test compound (BA1003, BA1016, BA1017) to allow neurite growth. Polylysine substrates were used as a positive control. Quantitative analysis of neurite outgrowth was with the aid of Northern Eclipse software (Empix Imaging, Mississauga, Ontario). Data analysis and statistics were with Microsoft Excel.
Referring to FIG. 4 there is shown a graph illustrative of experiments performed in triplicate testing the ability of BA-1003, BA-1016 and BA-1017 to overcome growth inhibition by MAG. PC12 cells were plated on MAG substrates alone (MAG) or MAG substrates in the presence of 0.31 uM, 3.1 um or 31 um concentrations of the test compound. The numbers of neurons that grew neurites were scored, and are shown as the percentage of neurite growth.

[3] = test system: retinal ganglion cell axons; experiment: Axon regeneration after optic nerve crush, intravitreal injection; type: in vivo, rat; conditions: adult rats, two weeks after crush
Description: To examine the ability of BA-1016 to promote axon regeneration in vivo, the regeneration of retinal ganglion cell axons was examined in the optic nerve after intravitrial injection of BA-1016. In these experiments, BA-1016 was injected at in the vitreous of rats immediately after optic nerve crush that transects all of the retinal ganglion cell (RGC) axons (Lehmann et al, IBID). Two weeks later the animals cholera toxin B subunit was injected in the eye to anterogradelty label the regenerating RGC axons. The next day the animals were killed perfused with saline, and the optic nerves removed for sectioning. Longitudinal sections of the optic nerve were reacted for anti-cholera toxin immunoreactivity to observe the anterogradely labeled fibers.
Rats were anesthetized with isoflorane (2.4%) and the head shaved. […] Retinal ganglion cell axons were labeled by CTB were detected by immunohistochemistry for CTB using a goat anti-choleragenoid (List Biological Labs.), a biotinylated rabbit anti-goat (Vector Labs., Burlingame, Calif.) and DTAF-conjugated streptavidin (Jackson Labs., West Grove, Pa.) as described previously (Lehmann et al IBID)

Substance: (R)-trans-4-(But-3′-en-1′-amino)-N-(4″-pyridyl)cyclohexane Carboxamide Dihydrochloride [BA-1016]
- efficacy of the stereoisomers compared (FIG. 2) ([1]; BA-1016 versus BA-1017): better efficacy
- neurite outgrowth (FIG. 2) ([1]; NG108 cells, 3.1 to 31 μM): promote neurite outgrowth
- neurite outgrowth on MAG substrates at the lowest concentration tested ([2]; PC12 cells, 0.31 uM): better neurite outgrowth
- neurite outgrowth on inhibitory MAG substrates (FIG. 4) ([2]; PC12 cells, 0.31, 3.1 or 31 uM, Dihydrochloride): can promote neurite outgrowth; also recorded: able to overcome growth inhibition by MAG
- distances of axon growth [3]: exceeded 500 um
- axon regeneration after optic nerve injury (FIG. 5) ([3]; Dihydrochloride): can promote axon regeneration; also recorded: RGC axons were observed
